The results in this text go back to PubChem BioAssay AID1259407 (Chemical Carcinogenesis Research Information System (CCRIS), 2018).

This data set concerns CCRIS mutagenicity, Ames/micronucleus/aberration tests. Kind of data set: CCRIS mutagenicity studies.
Where [1] appears, read: Test System: AMES SALMONELLA TYPHIMURIUM, Strain/Indicator: TA1537, Metabolic Activation: NONE, Method: PREINCUBATION
[2] abbreviates: Test System: AMES SALMONELLA TYPHIMURIUM, Strain/Indicator: TA100, Metabolic Activation: NONE, Method: STANDARD PLATE.
Where [3] appears, read: Test System: AMES SALMONELLA TYPHIMURIUM, Strain/Indicator: TA97, Metabolic Activation: NONE, Method: PREINCUBATION
[4] abbreviates: Test System: AMES SALMONELLA TYPHIMURIUM, Strain/Indicator: TA98, Metabolic Activation: NONE, Method: PREINCUBATION
The mark [5] stands for this setting: Test System: AMES SALMONELLA TYPHIMURIUM, Strain/Indicator: TA100, Metabolic Activation: NONE, Method: PREINCUBATION
[6] abbreviates: Test System: AMES SALMONELLA TYPHIMURIUM, Strain/Indicator: TA1535, Metabolic Activation: NONE, Method: PREINCUBATION

Activity calls are given as the source filed them. The rule behind the calls is not given here.

Turning to `Cc1cc2c3c(cccc3c1)-c1cc3ccccc3cc1-2`, where the note is “Test System: AMES SALMONELLA TYPHIMURIUM, Strain/Indicator: TA100, Metabolic Activation: RAT, LIVER, S-9, AROCLOR 1254”, the mutagenic call is “active; positive”.

With `Cc1ccc2nc3ccc(C)cc3c(N)c2c1`, under setting [1], the mutagenic call is “active; positive”.

On to `C[n+]1ccn(CCC[n+]2ccc(C(N)=O)cc2)c1/C=N/O`, for which the mutagenic call by setting is: (Test System: AMES SALMONELLA TYPHIMURIUM, Strain/Indicator: TA97, Metabolic Activation: NONE, Method: STANDARD PLATE) “inactive; negative”; (Test System: AMES SALMONELLA TYPHIMURIUM, Strain/Indicator: TA97, Metabolic Activation: S-9, Method: STANDARD PLATE) “inactive; negative”; under setting [2], “inactive; negative”; (Test System: AMES SALMONELLA TYPHIMURIUM, Strain/Indicator: TA100, Metabolic Activation: S-9, Method: STANDARD PLATE) “inactive; negative”; (Test System: AMES SALMONELLA TYPHIMURIUM, Strain/Indicator: TA104, Metabolic Activation: NONE, Method: STANDARD PLATE) “inactive; negative”; (Test System: AMES SALMONELLA TYPHIMURIUM, Strain/Indicator: TA104, Metabolic Activation: S-9, Method: STANDARD PLATE) “inactive; negative”. In addition, the mutagenic call by setting is: (Test System: AMES SALMONELLA TYPHIMURIUM, Strain/Indicator: TA1537, Metabolic Activation: NONE, Method: STANDARD PLATE) “inactive; negative”; (Test System: AMES SALMONELLA TYPHIMURIUM, Strain/Indicator: TA1537, Metabolic Activation: S-9, Method: STANDARD PLATE) “inactive; negative”; (Test System: AMES SALMONELLA TYPHIMURIUM, Strain/Indicator: TA1538, Metabolic Activation: NONE, Method: STANDARD PLATE) “inactive; negative”; (Test System: AMES SALMONELLA TYPHIMURIUM, Strain/Indicator: TA1538, Metabolic Activation: S-9, Method: STANDARD PLATE) “inactive; negative”.

On to `CC1(C)C[C@H]2C=C(C=O)[C@@]3(C=O)C[C@@]3(C)[C@H]2C1`, for which the mutagenic call (Test System: CHINESE HAMSTER V-79, Strain/Indicator: V-79/6-THIOGUANINE (HGPRT), Metabolic Activation: NONE) is “inactive; negative”.

Regarding `Cc1ccc(NC(=O)CBr)cc1`, the mutagenic call (Test System: AMES SALMONELLA TYPHIMURIUM, Strain/Indicator: TA100, Metabolic Activation: MOUSE, LIVER, S-9, AROCLOR 1254, Method: STANDARD PLATE) was “inactive; negative” and the mutagenic call under setting [2] is “inactive; negative”.

As for `CCCCCCCCCCCCCl`, the mutagenic call was “inactive; negative” (Test System: AMES SALMONELLA TYPHIMURIUM, Strain/Indicator: TA97, Metabolic Activation: HAMSTER, LIVER, S-9, AROCLOR 1254 (10 OR 30%), Method: PREINCUBATION); “inactive; negative” under setting [3]; “inactive; negative” (Test System: AMES SALMONELLA TYPHIMURIUM, Strain/Indicator: TA97, Metabolic Activation: RAT, LIVER, S-9, AROCLOR 1254 (10 OR 30%), Method: PREINCUBATION); “inactive; negative” (Test System: AMES SALMONELLA TYPHIMURIUM, Strain/Indicator: TA98, Metabolic Activation: HAMSTER, LIVER, S-9, AROCLOR 1254 (10 OR 30%), Method: PREINCUBATION); “inactive; negative” under setting [4]; “inactive; negative” (Test System: AMES SALMONELLA TYPHIMURIUM, Strain/Indicator: TA98, Metabolic Activation: RAT, LIVER, S-9, AROCLOR 1254 (10 OR 30%), Method: PREINCUBATION). In addition, the mutagenic call is, setting by setting: (Test System: AMES SALMONELLA TYPHIMURIUM, Strain/Indicator: TA100, Metabolic Activation: HAMSTER, LIVER, S-9, AROCLOR 1254 (10 OR 30%), Method: PREINCUBATION) “inactive; negative”; under setting [5], “inactive; negative”; (Test System: AMES SALMONELLA TYPHIMURIUM, Strain/Indicator: TA100, Metabolic Activation: RAT, LIVER, S-9, AROCLOR 1254 (10 OR 30%), Method: PREINCUBATION) “inactive; negative”; (Test System: AMES SALMONELLA TYPHIMURIUM, Strain/Indicator: TA1535, Metabolic Activation: HAMSTER, LIVER, S-9, AROCLOR 1254 (10 OR 30%), Method: PREINCUBATION) “inactive; negative”; under setting [6], “inactive; negative”; (Test System: AMES SALMONELLA TYPHIMURIUM, Strain/Indicator: TA1535, Metabolic Activation: RAT, LIVER, S-9, AROCLOR 1254 (10 OR 30%), Method: PREINCUBATION) “inactive; negative”. The mutagenic call (Test System: AMES SALMONELLA TYPHIMURIUM, Strain/Indicator: TA1537, Metabolic Activation: HAMSTER, LIVER, S-9, AROCLOR 1254 (30%), Method: PREINCUBATION) was “inactive; negative”; the mutagenic call under setting [1] is “inactive; negative”; the mutagenic call (Test System: AMES SALMONELLA TYPHIMURIUM, Strain/Indicator: TA1537, Metabolic Activation: RAT, LIVER, S-9, AROCLOR 1254 (30%), Method: PREINCUBATION) was “inactive; negative”.

For `CCCCOP(=O)(OCCCC)Oc1ccccc1`, the mutagenic call is, setting by setting: (Test System: AMES SALMONELLA TYPHIMURIUM, Strain/Indicator: TA97, Metabolic Activation: HAMSTER, LIVER, S-9, AROCLOR 1254 (10%), Method: PREINCUBATION) “inactive; negative”; (Test System: AMES SALMONELLA TYPHIMURIUM, Strain/Indicator: TA97, Metabolic Activation: HAMSTER, LIVER, S-9, AROCLOR 1254 (30%), Method: PREINCUBATION) “inactive; negative”; under setting [3], “inactive; negative”; (Test System: AMES SALMONELLA TYPHIMURIUM, Strain/Indicator: TA97, Metabolic Activation: RAT, LIVER, S-9, AROCLOR 1254 (10%), Method: PREINCUBATION) “inactive; negative”; (Test System: AMES SALMONELLA TYPHIMURIUM, Strain/Indicator: TA97, Metabolic Activation: RAT, LIVER, S-9, AROCLOR 1254 (30%), Method: PREINCUBATION) “inactive; negative”; (Test System: AMES SALMONELLA TYPHIMURIUM, Strain/Indicator: TA98, Metabolic Activation: HAMSTER, LIVER, S-9, AROCLOR 1254 (10%), Method: PREINCUBATION) “inactive; negative”. In addition, the mutagenic call was “inactive; negative” (Test System: AMES SALMONELLA TYPHIMURIUM, Strain/Indicator: TA98, Metabolic Activation: HAMSTER, LIVER, S-9, AROCLOR 1254 (30%), Method: PREINCUBATION); “inactive; negative” under setting [4]; “inactive; negative” (Test System: AMES SALMONELLA TYPHIMURIUM, Strain/Indicator: TA98, Metabolic Activation: RAT, LIVER, S-9, AROCLOR 1254 (10%), Method: PREINCUBATION); “inactive; negative” (Test System: AMES SALMONELLA TYPHIMURIUM, Strain/Indicator: TA98, Metabolic Activation: RAT, LIVER, S-9, AROCLOR 1254 (30%), Method: PREINCUBATION); “inactive; negative” (Test System: AMES SALMONELLA TYPHIMURIUM, Strain/Indicator: TA100, Metabolic Activation: HAMSTER, LIVER, S-9, AROCLOR 1254 (10%), Method: PREINCUBATION); “inactive; negative” (Test System: AMES SALMONELLA TYPHIMURIUM, Strain/Indicator: TA100, Metabolic Activation: HAMSTER, LIVER, S-9, AROCLOR 1254 (30%), Method: PREINCUBATION). Besides, the mutagenic call was “inactive; negative” under setting [5]; “inactive; negative” (Test System: AMES SALMONELLA TYPHIMURIUM, Strain/Indicator: TA100, Metabolic Activation: RAT, LIVER, S-9, AROCLOR 1254 (10%), Method: PREINCUBATION); “inactive; negative” (Test System: AMES SALMONELLA TYPHIMURIUM, Strain/Indicator: TA100, Metabolic Activation: RAT, LIVER, S-9, AROCLOR 1254 (30%), Method: PREINCUBATION); “inactive; negative” (Test System: AMES SALMONELLA TYPHIMURIUM, Strain/Indicator: TA1535, Metabolic Activation: HAMSTER, LIVER, S-9, AROCLOR 1254 (10%), Method: PREINCUBATION); “inactive; negative” (Test System: AMES SALMONELLA TYPHIMURIUM, Strain/Indicator: TA1535, Metabolic Activation: HAMSTER, LIVER, S-9, AROCLOR 1254 (30%), Method: PREINCUBATION); “inactive; negative” under setting [6]. The mutagenic call (Test System: AMES SALMONELLA TYPHIMURIUM, Strain/Indicator: TA1535, Metabolic Activation: RAT, LIVER, S-9, AROCLOR 1254 (10%), Method: PREINCUBATION) was “inactive; negative” and the mutagenic call (Test System: AMES SALMONELLA TYPHIMURIUM, Strain/Indicator: TA1535, Metabolic Activation: RAT, LIVER, S-9, AROCLOR 1254 (30%), Method: PREINCUBATION) is “inactive; negative”.
